# According to patent US20180344680A1, “COMPOSITIONS AND METHODS FOR TREATMENT, AMELIORATION, AND PREVENTION OF DIABETES-RELATED SKIN ULCERS” (THE ARIZONA BOARD OF REGENTS ON BEHALF OF THE UNIVERSITY OF …, priority 2015, published 2018):
# How the values were obtained:
# [1] = system: HaCaT cells; assay: ROS measurement (DCF/flow cytometry) in HaCaT cells; format: cell-based, human; conditions: HG HaCaT cells; 5 μmol/L SF or 20 μmol/L CA every 24 h, 48 h
# Experimental: Human immortalized keratinocytes HaCaT were obtained from the Arizona Cancer Center (see, […], et al., J Cell Biol 106:761-771, 1988). Cells were grown in Dulbecco's modified Eagle's medium (DMEM) containing low glucose (LG, 5.5 mmol/L) and 10% fetal bovine serum (FBS) in an incubator at 37° C. with 5% CO2. For the experiments, the cells were starved in serum-free LG DMEM for 24 h, then either maintained in LG DMEM or switched to high glucose (HG, 25 mmol/L) DMEM for 2 days (see, e.g., Zheng H, et al., Diabetes 60:3055-3066, 2011; Lan C C, et al., Br J Dermatol 159:1103-1115, 2008). For the treatments, the cells were dosed with 5 μmol/L SF or 20 μmol/L CA. siRNA transfections. […] ROS were measured in HaCaT cells using DCF. […] Then, 48 h later, the cells were switched into fresh medium containing 10 μg/mL DCF, incubated 30 min, and fluorescence intensity was measured by flow cytometry. The rate of cell proliferation was measured by two methods (see, […], et al., Proc Natl Acad Sci USA 108:1433-1438, 2011): 1) detection of Ki67 using indirect immunofluorescence as described previously (see, e.g., Lau A, et al., Mol Cell Biol 30:3275-3285, 2010); and 2) using the xCELLigence system (Roche). For this, 8000 HaCaT cells/well were seeded in LG or HG media, with or without an NRF2 activator, and cell growth was monitored for 72 h. […]
# [2] = system: HaCaT cells; assay: In vitro wounding assay (PDMS barrier) of keratinocyte migration; format: cell-based, human; conditions: HG HaCaT cells; 5 μmol/L SF or 20 μmol/L CA; up to 72 h
# Experimental: Human immortalized keratinocytes HaCaT were obtained from the Arizona Cancer Center (see, e.g., Boukamp P, et al., J Cell Biol 106:761-771, 1988). Cells were grown in Dulbecco's modified Eagle's medium (DMEM) containing low glucose (LG, 5.5 mmol/L) and 10% fetal bovine serum (FBS) in an incubator at 37° C. with 5% CO2. For the experiments, the cells were starved in serum-free LG DMEM for 24 h, then either maintained in LG DMEM or switched to high glucose (HG, 25 mmol/L) DMEM for 2 days (see, e.g., Zheng H, et al., Diabetes 60:3055-3066, 2011; Lan C C, et al., Br J Dermatol 159:1103-1115, 2008). For the treatments, the cells were dosed with 5 μmol/L SF or 20 μmol/L CA.
# siRNA transfections. HaCaT cells were transfected with either a non-specific, control small interfering RNA (Con-siRNA, #1027281, Qiagen, Valencia, Calif.) or an NRF2-specific siRNA (#S100657937) using the HiPerfect transfection reagent (Qiagen) according to the manufacturer's instructions. Briefly, cells were maintained in LG or HG DMEM for 2 days and then transfected with either control or NRF2 siRNA for migration, proliferation, and apoptosis experiments. For the ROS detection, cells were maintained in LG DMEM and transfected with either control or NRF2 siRNA; 24 h later, the cells were switched to HG DMEM and treated as indicated.
# In vitro wounding assay. […]
SMILES,ROS levels [1],in vitro wound closure (cell migration) [2]
"O=CC=Cc1ccccc1 [CA, Cinnamaldehyde]",reduced ROS levels significantly,significantly accelerated wound closure in HG cells
"C[S@@+]([O-])CCCCN=C=S [SF, L-sulforaphane]",reduced ROS levels significantly,significantly accelerated wound closure in HG cells
